Drawing on patent US20230102554A1 (GB002, INC., priority 2019, published 2023), this text covers IC50 for 27 molecules.

Assay [1] concerns the target T1, Human PDGFRα, cytoplasmic domain (GST-PDGFRα) (Homo sapiens, UniProt P16234).
T1 construct: made in house
Put plainly: Human PDGFRα biochemical inhibition assay (off-chip Mobility Shift Assay).

Assay [2] concerns the target T2, Human PDGFRβ, cytoplasmic domain (GST-PDGFRβ) (Homo sapiens, UniProt P09619).
T2 construct: made in house
Put plainly: Human PDGFRβ biochemical inhibition assay (off-chip Mobility Shift Assay). The method in brief:
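GST-tagged cytoplasmic domain (aa 557-1106) from baculovirus was incubated 1 h at room temperature with compound, CSKtide, ATP at Km and Mg²⁺ in HEPES buffer, pH 7.5. Phosphorylated and unphosphorylated peptide were separated by off-chip mobility shift, and the product ratio P/(P+S) gave percent inhibition.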

pIC50: −log10 of the molar value.

T1 sequence (P16234 550-1089 T674I): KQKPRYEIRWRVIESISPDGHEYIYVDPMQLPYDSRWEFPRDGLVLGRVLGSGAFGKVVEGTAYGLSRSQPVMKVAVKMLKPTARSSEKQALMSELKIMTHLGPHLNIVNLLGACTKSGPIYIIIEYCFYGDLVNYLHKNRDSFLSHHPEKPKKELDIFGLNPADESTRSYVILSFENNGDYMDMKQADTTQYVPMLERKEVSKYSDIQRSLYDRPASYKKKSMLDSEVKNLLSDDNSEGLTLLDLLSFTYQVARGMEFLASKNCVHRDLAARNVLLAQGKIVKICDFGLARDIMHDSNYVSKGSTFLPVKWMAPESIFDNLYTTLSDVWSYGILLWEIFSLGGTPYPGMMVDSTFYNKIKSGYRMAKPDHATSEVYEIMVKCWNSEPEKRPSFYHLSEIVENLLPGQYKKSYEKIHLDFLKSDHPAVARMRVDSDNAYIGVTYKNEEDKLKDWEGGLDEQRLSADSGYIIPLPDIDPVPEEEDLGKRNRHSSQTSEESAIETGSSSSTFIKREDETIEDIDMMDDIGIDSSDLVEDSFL
T2 sequence (P09619 with tags, fused parts or gaps): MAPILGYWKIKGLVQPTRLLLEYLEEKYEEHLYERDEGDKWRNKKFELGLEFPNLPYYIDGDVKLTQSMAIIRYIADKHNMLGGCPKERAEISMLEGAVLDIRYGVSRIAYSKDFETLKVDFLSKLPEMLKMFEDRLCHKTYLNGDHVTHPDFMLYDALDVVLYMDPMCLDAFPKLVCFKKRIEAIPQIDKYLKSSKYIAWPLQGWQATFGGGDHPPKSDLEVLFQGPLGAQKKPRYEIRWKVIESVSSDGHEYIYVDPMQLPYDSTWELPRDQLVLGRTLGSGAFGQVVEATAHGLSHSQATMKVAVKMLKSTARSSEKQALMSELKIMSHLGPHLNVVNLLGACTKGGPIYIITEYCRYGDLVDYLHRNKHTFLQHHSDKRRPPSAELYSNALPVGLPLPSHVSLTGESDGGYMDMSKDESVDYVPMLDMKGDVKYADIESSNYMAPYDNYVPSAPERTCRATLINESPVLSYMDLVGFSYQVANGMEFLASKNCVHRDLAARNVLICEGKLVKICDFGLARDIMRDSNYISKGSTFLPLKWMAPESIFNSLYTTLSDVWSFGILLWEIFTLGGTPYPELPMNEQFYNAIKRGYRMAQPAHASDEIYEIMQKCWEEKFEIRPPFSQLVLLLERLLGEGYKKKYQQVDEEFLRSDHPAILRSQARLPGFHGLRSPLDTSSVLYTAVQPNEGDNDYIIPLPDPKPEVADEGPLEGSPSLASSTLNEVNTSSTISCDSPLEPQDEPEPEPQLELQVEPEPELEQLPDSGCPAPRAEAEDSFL

With `COc1ncc(C(=O)Nc2cccc([C@H](C)Nc3cnc4cnn(C)c4n3)c2)cc1C(F)(F)F` [Compound 247, (S)-6-methoxy-N-(3-(1-((1-methyl-1-pyrazolo[3,4-b]pyrazin-6-yl)amino)ethyl)phenyl)-5-(trifluoromethyl) nicotinamide], the pIC50 in assay [1] and in assay [2] was more than 6.52 in each case.

Take `Cc1cncc(C(=O)Nc2cccc([C@H](C)Nc3cnc4[nH]c(-c5cnn(C)c5)nc4n3)c2)c1` [Compound 603, (S)-5-methyl-N-(3-(1-((2-(1-methyl-1H-pyrazol-4-yl)-1H-imidazo[4,5-b]pyrazin-5-yl)amino)ethyl)phenyl) nicotinamide]: the pIC50 in assay [1] and in assay [2] was more than 6.52 throughout.

For `Cc1cc(C(=O)Nc2cccc([C@H](C)Nc3cnc4cnn(C)c4n3)c2)ccc1C(=O)OCCN1CCOCC1` [Compound 264, 2-morpholinoethyl (S)-2-methyl-4-((3-(1-((1-methyl-1H-pyrazolo[3,4-b]pyrazin-6-yl)amino)ethyl)phenyl)carbamoyl) benzoate], the pIC50 in assay [1] and in assay [2] was more than 6.52 each time.

Take `Cc1cc(C(=O)Nc2cccc([C@H](C)Nc3cnc4cnn(C)c4n3)c2)ccc1C(=O)OCCN1CCCC1` [Compound 268, 2-(pyrrolidin-1-yl)ethyl (S)-2-methyl-4-((3-(1-((1-methyl-1H-pyrazolo[3,4-b]pyrazin-6-yl)amino)ethyl)phenyl)carbamoyl) benzoate]: the pIC50 in assay [1] and in assay [2] was more than 6.52 throughout.

Take `Cc1n[nH]c2ncc(N[C@@H](C)c3cccc(NC(=O)c4cnc(C(F)(F)F)s4)c3)nc12` [Compound 540, (S)-N-(3-(1-((3-methyl-1H-pyrazolo[3,4-b]pyrazin-5-yl)amino)ethyl)phenyl)-2-(trifluoromethyl)thiazole-5-carboxamide]: the pIC50 in assay [1] and in assay [2] was more than 6.52 each time.

For `CC(C)c1cc(C(=O)Nc2cccc([C@H](C)Nc3cnc4cnn(C)c4n3)c2)n(C)n1` [Compound 165, (S)-3-isopropyl-1-methyl-N-(3-(1-((1-methyl-1H-pyrazolo[3,4-6]pyrazin-6-yl)amino)ethyl)phenyl)-1H-pyrazole-5-carboxamide], the pIC50 in assay [1] and in assay [2] was more than 6.52 in each case.

Turning to `CCn1cc2ncc(N[C@@H](C)c3cc(NC(=O)c4ccc(OC5CCN(C)CC5)c(Cl)c4)ccc3F)nc2n1` [Compound 430, (S)-3-chloro-N-(3-(1-((2-ethyl-2H-pyrazolo[3,4-b]pyrazin-6-yl)amino)ethyl)-4-fluorophenyl)-4-((1-methylpiperidin-4-yl)oxy)benzamide], the pIC50 in assay [1] and in assay [2] was more than 6.52 throughout.

Turning to `CCn1cc2ncc(N[C@@H](C)c3cccc(NC(=O)c4ccc(CN5CC6CC6C5)c(C)c4)c3)nc2n1` (stereo partly drawn) [Compound 477, 4-((3-azabicyclo[3.1.0]hexan-3-yl)methyl)-N-(3-((5)-1-((2-ethyl-2H-pyrazolo[3,4-b]pyrazin-6-yl)amino)ethyl)phenyl)-3-methylbenzamide], the pIC50 in assay [1] and in assay [2] was more than 6.52 in each case.

With `CCCOC(=O)c1ccc(C(=O)Nc2cccc([C@H](C)Nc3cnc4cnn(C)c4n3)c2)cc1C` [Compound 254, propyl (S)-2-methyl-4-((3-(1-((1-methyl-1H-pyrazolo[3,4-b]pyrazin-6-yl)amino)ethyl)phenyl)carbamoyl)benzoate], the pIC50 in assay [1] and in assay [2] was more than 6.52 in each case.

Consider `CCn1ccc2ncc(N[C@@H](C)c3cccc(NC(=O)c4cncc(C)c4)c3)nc21` [Compound 82, (S)-N-(3-(1-((5-ethyl-5H-pyrrolo[2,3-b]pyrazin-3-yl)amino)ethyl)phenyl)-5-methylnicotinamide], for which the figures for the negative-log IC50 (pIC50) in assay [1] and in assay [2] were more than 6.52 and 6.00 to 6.52, respectively.

For `CCOc1ccc(C(=O)Nc2cccc([C@H](C)Nc3cnc4cn(CC)nc4n3)c2)cn1` [Compound 286, (S)-6-ethoxy-N-(3-(1-((2-ethyl-2H-pyrazolo[3,4-b]pyrazin-6-yl)amino)ethyl)phenyl) nicotinamide], the pIC50 in assay [1] is more than 6.52; in assay [2], 6.00 to 6.52.

For `C[C@H](Nc1cnc2cnn(C)c2n1)c1cccc(NC(=O)c2cnn(C(F)F)c2)c1` [Compound 149, (S)-1-(difluoromethyl)-N-(3-(1-((1-methyl-1H-pyrazolo[3,4-b]pyrazin-6-yl)amino)ethyl)phenyl)-1H-pyrazole-4-carboxamide], the pIC50 in assay [1] and in assay [2] was more than 6.52 in each case.

As to `CCn1cc2ncc(N[C@@H](C)c3cc(NC(=O)Cc4ccc(F)cn4)ccc3F)nc2n1` [Compound 649, (S)-N-(3-(1-((2-ethyl-2H-pyrazolo[3,4-b]pyrazin-6-yl)amino)ethyl)-4-fluorophenyl)-2-(5-fluoropyridin-2-yl)acetamide], the pIC50 in assay [1] is more than 6.52; in assay [2], 6.00 to 6.52.

As for `Cc1cncc(C(=O)Nc2cccc([C@H](C)Nc3cnc4ccoc4c3)c2)c1` [Compound 604, (S)-N-(3-(1-(furo[3,2-b]pyridin-6-ylamino)ethyl)phenyl)-5-methylnicotinamide], the pIC50 in assay [1] was more than 6.52; in assay [2], 6.00 to 6.52.

As for `COc1ccc(C(=O)Nc2cccc([C@H](C)Nc3cnc4cnn(C)c4n3)c2)cc1C` [Compound 210, (S)-4-methoxy-3-methyl-N-(3-(1-((1-methyl-1H-pyrazolo[3,4-b]pyrazin-6-yl)amino)ethyl)phenyl)benzamide], the pIC50 in assay [1] and in assay [2] was more than 6.52 throughout.

On to `COC(=O)c1ccc(C(=O)Nc2cccc([C@H](C)Nc3cnc4cnn(C)c4n3)c2)cn1` [Compound 212, methyl (S)-5-((3-(1-((1-methyl-1H-pyrazolo[3,4-b]pyrazin-6-yl)amino)ethyl)phenyl)carbamoyl) picolinate], for which the negative-log IC50 (pIC50) in assay [1] is 6.00 to 6.52; in assay [2], not above 6.00.

With `Cc1ccc(C(=O)Nc2cccc([C@H](C)Nc3cnc4cnn(C)c4n3)c2)cc1C` [Compound 234, (S)-3,4-dimethyl-N-(3-(1-((1-methyl-1H-pyrazolo[3,4-b]pyrazin-6-yl)amino)ethyl)phenyl)benzamide], the pIC50 in assay [1] and in assay [2] was more than 6.52 each time.

On to `CCOC(=O)c1ccc(C(=O)Nc2cccc([C@H](C)Nc3cnc4cnn(C)c4n3)c2)cc1C` [Compound 255, ethyl (S)-2-methyl-4-((3-(1-((1-methyl-1H-pyrazolo[3,4-b]pyrazin-6-yl)amino)ethyl)phenyl)carbamoyl)benzoate], for which the pIC50 in assay [1] and in assay [2] was more than 6.52 throughout.

For the molecule `Cc1cc(C(=O)Nc2cccc([C@H](C)Nc3cnc4cnn(C)c4n3)c2)ccc1C(=O)OCC(C)C` [Compound 263, isobutyl (S)-2-methyl-4-((3-(1-((1-methyl-1H-pyrazolo[3,4-b]pyrazin-6-yl)amino)ethyl)phenyl)carbamoyl)benzoate], the pIC50 is more than 6.52 in assay [1] and 6.00 to 6.52 in assay [2].

As to `CCn1cc2ncc(N[C@@H](C)c3cccc(NC(=O)c4ccc(CN5CC6(COC6)C5)c(C(F)F)c4)c3)nc2n1` [Compound 506, (S)-4-((2-oxa-6-azaspiro[3.3]heptan-6-yl)methyl)-3-(difluoromethyl)-N-(3-(1-((2-ethyl-2H-pyrazolo[3,4-b]pyrazin-6-yl)amino)ethyl)phenyl)benzamide], the pIC50 in assay [1] and in assay [2] was more than 6.52 throughout.

Regarding `CCn1cc2ncc(N[C@@H](C)c3cccc(NC(=O)Cc4cc(Cl)ccn4)c3)nc2n1` [Compound 676, (S)-2-(4-chloropyridin-2-yl)-N-(3-(1-((2-ethyl-2H-pyrazolo[3,4-b]pyrazin-6-yl)amino)ethyl)phenyl)acetamide], the pIC50 in assay [1] was 6.00 to 6.52; in assay [2], not above 6.00.

In the case of `Cc1cncc(C(=O)Nc2cccc([C@H](C)Nc3cnc4c(n3)CCCC4)c2)c1` [Compound 44, (S)-5-methyl-N-(3-(1-((5,6,7,8-tetrahydroquinoxalin-2-yl)amino)ethyl)phenyl) nicotinamide], the pIC50 in assay [1] was more than 6.52; in assay [2], not above 6.00.

On to `COc1ccc(-n2ncc3ncc(N[C@@H](C)c4cccc(NC(=O)c5cncc(C)c5)c4)nc32)cc1OC` [Compound 185, (S)-N-(3-(1-((1-(3,4-dimethoxyphenyl)-1H-pyrazolo[3,4-b]pyrazin-6-yl)amino)ethyl)phenyl)-5-methylnicotinamide], for which the pIC50 in assay [1] and in assay [2] was more than 6.52 each time.

`CCn1cnc2ccc(C(=O)Nc3cccc([C@H](C)Nc4cnc5cnn(C)c5n4)c3)cc21` [Compound 74, (S)-1-ethyl-N-(3-(1-((1-methyl-1H-pyrazolo[3,4-b]pyrazin-6-yl)amino)ethyl)phenyl)-1H-benzo[d]imidazole-6-carboxamide]: the pIC50 in assay [1] and in assay [2] was more than 6.52 throughout.

For the molecule `C[C@H](Nc1cnc2cnn(C)c2n1)c1cccc(NC(=O)c2ccc3ccn(C)c3c2)c1` [Compound 50, (S)-1-methyl-N-(3-(1-((1-methyl-1H-pyrazolo[3,4-b]pyrazin-6-yl)amino)ethyl)phenyl)-1H-indole-6-carboxamide], the pIC50 in assay [1] and in assay [2] was more than 6.52 throughout.

For the molecule `Cc1cc2ncc(N[C@@H](C)c3cccc(NC(=O)c4ccc(OC(F)F)nc4)c3)nc2s1` [Compound 608, (S)-6-(difluoromethoxy)-N-(3-(1-((6-methylthieno[2,3-b]pyrazin-3-yl)amino)ethyl)phenyl)nicotinamide], the pIC50 in assay [1] and in assay [2] was more than 6.52 each time.

With `CCn1cc2ncc(N[C@@H](C)c3cccc(NC(=O)c4ccc(OC)c(F)c4)c3)nc2n1` [Compound 359, (S)-N-(3-(1-((2-ethyl-2H-pyrazolo[3,4-b]pyrazin-6-yl)amino)ethyl)phenyl)-3-fluoro-4-methoxybenzamide], the pIC50 in assay [1] and in assay [2] was more than 6.52 each time.

Usually pIC50 stands for the IC50 on a negative log10 scale, so that one unit is a factor of ten.
